Results as given in US20260356851A1, “TRICYCLIC COMPOUNDS AND USES THEREOF” (HUTCHMED LIMITED, priority 2023, published 2026).

How the values were obtained:
Assay type in all cases: cell-based
[1] = molecular target: T1, pERK1/2 (Thr202/Tyr204), NCI-1H441 (KRAS G12V) (Homo sapiens, UniProt P01116, G12V); assay: Assay of intracellular pERK1/2 (Thr202/Tyr204) phosphorylation in NCI-H441 cells (KRAS G12V); conditions: pERK1/2, 2 days, read-out: NCI-H441 (KRAS G12V) IC50
T1 construct: pERK1/2 HTRF read-out
Procedure, shortened: (§1)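 Cells (10000-12000/well) exposed to 3-fold compound dilutions for 2 days at 37 °C, then lysed; pERK1/2 (Thr202/Tyr204) measured by HTRF with d2 and cryptate antibodies, 665/615 nm ratio.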

[2] = molecular target: T2, pERK1/2 (Thr202/Tyr204), NCI-1H358 (KRAS G12C) (Homo sapiens, UniProt P01116, G12C); assay: Assay of intracellular pERK1/2 (Thr202/Tyr204) phosphorylation in NCI-H358 cells (KRAS G12C); conditions: pERK1/2, 2 days, read-out: NCI-H358 (KRAS G12C) IC50
T2 construct: pERK1/2 HTRF read-out
Procedure, shortened: as §1

[3] = molecular target: T3, pERK1/2 (Thr202/Tyr204), PANC-1 (KRAS G121D) (Homo sapiens, UniProt P01116, G12D); assay: Assay of intracellular pERK1/2 (Thr202/Tyr204) phosphorylation in PANC-1 cells (KRAS G12D); conditions: pERK1/2, 2 days, read-out: PANC-1 (KRAS G12D) IC50
T3 construct: pERK1/2 HTRF read-out
Procedure, shortened: as §1

T2 sequence (P01116 1-188 isoform P01116-2 G12C): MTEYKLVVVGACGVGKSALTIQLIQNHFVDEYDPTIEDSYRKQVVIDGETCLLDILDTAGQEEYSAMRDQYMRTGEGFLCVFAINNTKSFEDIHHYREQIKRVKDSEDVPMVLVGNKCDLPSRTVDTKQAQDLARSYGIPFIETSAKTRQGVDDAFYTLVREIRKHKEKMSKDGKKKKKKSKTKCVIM
T3 sequence (P01116 1-188 isoform P01116-2 G12D): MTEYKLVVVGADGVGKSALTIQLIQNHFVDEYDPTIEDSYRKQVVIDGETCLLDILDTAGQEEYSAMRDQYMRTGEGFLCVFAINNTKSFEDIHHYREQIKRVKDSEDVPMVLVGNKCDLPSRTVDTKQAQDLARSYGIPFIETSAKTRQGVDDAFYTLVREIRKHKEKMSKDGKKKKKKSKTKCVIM
T1 sequence (P01116 1-188 isoform P01116-2 G12V): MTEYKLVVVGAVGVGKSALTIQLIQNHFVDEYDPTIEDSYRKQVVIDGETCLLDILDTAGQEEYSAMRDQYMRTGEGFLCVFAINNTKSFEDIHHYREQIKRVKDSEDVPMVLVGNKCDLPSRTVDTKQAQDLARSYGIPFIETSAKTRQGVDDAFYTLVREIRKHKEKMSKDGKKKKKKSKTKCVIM

| IC50 [1] | IC50 [2] | IC50 [3] | Structure (SMILES) |
| --- | --- | --- | --- |
| 0.4 nM | 0.2 nM | 0.2 nM | Cc1c(C(F)(F)F)c(-c2nc3c4c(nc(OC[C@@]56CCCN5C[C@H](F)C6)nc4c2F)N(C(C)c2cccnc2N)[C@@H](C)CO3)c2c(Cl)n[nH]c2c1F (stereo partly drawn) [Compound 381] |
| > 100 nM | > 100 nM | > 100 nM | Cc1ccc(C(C)N2CCOc3nc(-c4cc(N)c(F)c(C)c4C(F)(F)F)c(F)c4nc(OC[C@@]56CCCN5C[C@H](F)C6)nc2c34)c(N)n1 (single isomer, unassigned) [Compound 251, 3-((R or S)-1-(5-(5-amino-4-fluoro-3-methyl-2-(trifluoromethyl)phenyl)-4-fluoro-2-(((2R,7aS)-2-fluorotetrahydro-1H-pyrrolizin-7a(5H)-yl)methoxy)-8,9-dihydro-10H-7-oxa-1,3,6,10-tetraazacyclohepta[de]naphthalen-10-yl)ethyl)-6-methylpyridin-2-amine] |
| 0.6 nM | 0.2 nM | 2 nM | Cc1c(F)c(N)cc(-c2nc3c4c(nc(OC[C@@H]5C[C@@H](F)CN5C)nc4c2F)N(C(C)c2cccnc2N)[C@@H](C)CO3)c1C(F)(F)F (single isomer, unassigned) [Compound 278, 3-((R or S)-1-((S)-5-(5-amino-4-fluoro-3-methyl-2-(trifluoromethyl)phenyl)-4-fluoro-2-(((2S,4R)-4-fluoro-1-methylpyrrolidin-2-yl)methoxy)-9-methyl-8,9-dihydro-10H-7-oxa-1,3,6,10-tetraazacyclohepta[de]naphthalen-10-yl)ethyl)pyridin-2-amine] |
| 2 nM | 2 nM | 48 nM | CCC(c1cccnc1N)N1CCOc2nc(-c3cc(N)c(F)c(F)c3C(F)(F)F)c(F)c3nc(OC[C@@]45CCCN4C[C@H](F)C5)nc1c23 (single isomer, unassigned) [Compound 216, 3-((R or S)-1-(5-(5-amino-3,4-difluoro-2-(trifluoromethyl)phenyl)-4-fluoro-2-(((2R,7aS)-2-fluorotetrahydro-1H-pyrrolizin-7a(5H)-yl)methoxy)-8,9-dihydro-10H-7-oxa-1,3,6,10-tetraazacyclohepta[de]naphthalen-10-yl)propyl)pyridin-2-amine] |
| > 100 nM | > 100 nM | > 100 nM | Cc1cc(N)cc(-c2nc3c4c(nc(OC[C@@]56CCCN5C[C@H](F)C6)nc4c2F)N(C(C)c2cccnc2N)C2(CC2)CO3)c1C(F)(F)F (stereo partly drawn) [Compound 181] |
| 3 nM | 1 nM | 54 nM | CC(c1cccnc1N)N1CCOc2nc(-c3cc(N)ccc3C(F)(F)F)c(F)c3nc(OC[C@@]45CCCN4C[C@H](F)C5)nc1c23 (stereo partly drawn) [Compound 18] |
| 0.4 nM | 0.3 nM | 2 nM | [2H]C1([2H])CC[C@@]2(C([2H])([2H])Oc3nc4c5c(nc(-c6cc(N)c(F)c(C)c6C(F)(F)F)c(F)c5n3)OCCN4C(C)c3cccnc3N)C[C@@H](F)CN12 (stereo partly drawn) [Compound 119] |
| 1 nM | 0.5 nM | 4 nM | Cc1c(F)c(N)cc(-c2nc3c4c(nc(OCC56CCCN5CC5(CC5)C6)nc4c2F)N(C(C)c2cccnc2N)CCO3)c1C(F)(F)F (stereo not drawn) [Compound 218] |
| > 1000 nM | 886 nM | > 1000 nM | C[C@H](c1cccnc1N)N1CCOc2nc(-c3c(C(F)(F)F)ccc4[nH]ncc34)c(F)c3nc(OC[C@@]45CCCN4C[C@H](F)C5)nc1c23 (single isomer, unassigned) [Compound 26, 3-((1R or 1S)-1-(4-fluoro-2-(((2R,7aS)-2-fluorotetrahydro-1H-pyrrolizin-7a(5H)-yl)methoxy)-5-(5-(trifluoromethyl)-1H-indazol-4-yl)-8,9-dihydro-10H-7-oxa-1,3,6,10-tetraazacyclohepta[de]naphthalen-10-yl)ethyl)pyridin-2-amine] |
| > 100 nM | > 100 nM | > 100 nM | [2H]C1([2H])CC[C@@]2(COc3nc4c5c(nc(-c6cc(N)c(F)c(Cl)c6C(F)(F)F)c(F)c5n3)OC([2H])([2H])C([2H])([2H])N4C(C)c3ccc[n+]([O-])c3N)C[C@@H](F)CN12 (stereo partly drawn) [Compound 224] |
| 2 nM | 0.7 nM | 21 nM | CC(c1cccnc1N)N1CCOc2nc(-c3cc(N)ccc3C(F)(F)F)c(F)c3nc(OC[C@@]45CCCN4C[C@H](F)C5)nc1c23 (single isomer, unassigned) [Compound 54, 3-((R or S)-1-(5-(5-amino-2-(trifluoromethyl)phenyl)-4-fluoro-2-(((2R,7aS)-2-fluorotetrahydro-1H-pyrrolizin-7a(5H)-yl)methoxy)-8,9-dihydro-10H-7-oxa-1,3,6,10-tetraazacyclohepta[de]naphthalen-10-yl)ethyl)pyridin-2-amine] |

The remaining lines, values behind:

| Structure (SMILES) | IC50 [1] | IC50 [2] | IC50 [3] |
| --- | --- | --- | --- |
| CC(c1cccnc1N)N1c2nc(OC[C@@]34CCCN3C[C@H](F)C4)nc3c(F)c(-c4cc(O)cc5ccc(F)c(F)c45)nc(c23)OC[C@@H]1C (single isomer, unassigned) [Compound 276, 4-((S)-10-((R or S)-1-(2-aminopyridin-3-yl)ethyl)-4-fluoro-2-(((2R,7aS)-2-fluorotetrahydro-1H-pyrrolizin-7a(5H)-yl)methoxy)-9-methyl-9,10-dihydro-8H-7-oxa-1,3,6,10-tetraazacyclohepta[de]naphthalen-5-yl)-5,6-difluoronaphthalen-2-ol] | > 100 nM | 77 nM | > 100 nM |
| Cc1cc(N)cc(-c2nc3c4c(nc(OC[C@@H]5CCCN5C5COC5)nc4c2F)N(C(C)c2cccnc2N)CCO3)c1C(F)(F)F (single isomer, unassigned) [Compound 160, 3-((R or S)-1-(5-(5-amino-3-methyl-2-(trifluoromethyl)phenyl)-4-fluoro-2-(((S)-1-(oxetan-3-yl)pyrrolidin-2-yl)methoxy)-8,9-dihydro-10H-7-oxa-1,3,6,10-tetraazacyclohepta[de]naphthalen-10-yl)ethyl)pyridin-2-amine] | 2 nM | 0.5 nM | > 100 nM |
| CC(c1cccnc1N)N1CCOc2nc(-c3cc(N)cc(F)c3C(F)(F)F)c(F)c3nc(OC[C@@H]4CCCN4C)nc1c23 (single isomer, unassigned) [Compound 91, 3-((R or S)-1-(5-(5-amino-3-fluoro-2-(trifluoromethyl)phenyl)-4-fluoro-2-(((S)-1-methylpyrrolidin-2-yl)methoxy)-8,9-dihydro-10H-7-oxa-1,3,6,10-tetraazacyclohepta[de]naphthalen-10-yl)ethyl)pyridin-2-amine] | > 100 nM | > 100 nM | > 100 nM |
| [2H]C([2H])(Oc1nc2c3c(nc(-c4cc(O)cc(Cl)c4C4CC4)c(F)c3n1)OCCN2[C@H](C)c1cccnc1N)[C@@H]1C[C@@H](F)CN1C([2H])([2H])[2H] (single isomer, unassigned) [Compound 142, 3-(10-((R or S)-1-(2-aminopyridin-3-yl)ethyl)-4-fluoro-2-(((2S,4R)-4-fluoro-1-(methyl-d3)pyrrolidin-2-yl)methoxy-d2)-9,10-dihydro-8H-7-oxa-1,3,6,10-tetraazacyclohepta[de]naphthalen-5-yl)-5-chloro-4-cyclopropylphenyl] | > 100 nM | > 100 nM | > 100 nM |
| Cc1cc2[nH]nc(C)c2c(-c2cc3nc(OC[C@@]45CCCN4C[C@H](F)C5)nc4c3c(n2)OC[C@H](C)N4C(C)c2cccnc2N)c1C(F)(F)F (stereo partly drawn) [Compound 385] | 2 nM | 0.7 nM | 0.4 nM |
| CC(c1cccnc1N)N1c2nc(OC[C@@]34CCCN3C[C@H](F)C4)nc3c(F)c(N4CC(O)Cc5ccccc54)nc(c23)OC[C@@H]1C (stereo partly drawn) [Compound 331] | > 100 nM | 38 nM | > 100 nM |
| CSc1nc2c3c(nc(-c4cc(O)cc5ccc(F)c(F)c45)c(F)c3n1)OCCN2C(C)c1cccnc1N (stereo not drawn) [Compound 33] | 121 nM | 193 nM | > 1000 nM |
| CC(c1cccnc1N)N1c2nc(OC[C@@]34CCCN3C[C@H](F)C4)nc3c(F)c(-c4c5c(cc6[nH]ncc46)CC=C5F)nc(c23)OC[C@@H]1C (stereo partly drawn) [Compound 374] | 2 nM | 0.6 nM | 1 nM |
| [2H]C([2H])(Oc1nc2c3c(nc(-c4cc(N)cc(C)c4C(F)(F)F)c(F)c3n1)OCCN2C(C)c1cccnc1N)[C@@H]1C[C@@H](F)CN1C([2H])([2H])[2H] (single isomer, unassigned) [Compound 132, 3-((R or S)-1-(5-(5-amino-3-methyl-2-(trifluoromethyl)phenyl)-4-fluoro-2-(((2S,4R)-4-fluoro-1-(methyl-d3)pyrrolidin-2-yl)methoxy-d2)-8,9-dihydro-10H-7-oxa-1,3,6,10-tetraazacyclohepta[de]naphthalen-10-yl)ethyl)pyridin-2-amine] | 1 nM | 0.4 nM | 14 nM |
| Cc1cc2[nH]ncc2c(-c2nc3c4c(nc(OC[C@@]56CCCN5C[C@H](F)C6)nc4c2F)N(C(C)c2cccnc2N)[C@H]2CCC[C@@H]2O3)c1C(F)(F)F (stereo partly drawn) [Compound 393] | > 100 nM | > 100 nM | > 100 nM |
| CC(c1cccnc1N)N1c2nc(OC[C@@]34CCCN3C[C@H](F)C4)nc3c(F)c(-c4c5c(cc6[nH]ncc46)CCC5(F)F)nc(c23)OC[C@@H]1C (stereo partly drawn) [Compound 370] | 3 nM | 1 nM | 2 nM |
| CC(c1cccnc1N)N1c2nc(OC[C@@]34CCCN3C[C@H](F)C4)nc3c(F)c(-c4c5ccccc5cc5[nH]ncc45)nc(c23)OC[C@@H]1C (stereo partly drawn) [Compound 348] | 0.5 nM | 0.2 nM | 0.5 nM |
